# Assay results as given in patent US11746116B2, “Antibiotic resistance breakers” (KING'S COLLEGE LONDON, priority 2017, dated 2023).
# Columns and labels:
# KP13368 = experiment: MIC, microdilution broth method; assay type: cell-based; settings: KP13368, in µg/mL
# SA8 = experiment: MIC, extended Gram-positive panel; assay type: cell-based, S. aureus
# M6 = experiment: MIC, microdilution broth method; assay type: cell-based; settings: M6, in µg/mL
# SA5 = assay type: cell-based, S. aureus
# SA9 = assay type: cell-based, S. aureus
# SA10 = experiment: MIC, extended Gram-positive panel; assay type: cell-based, S. aureus
# EMRSA15 = experiment: MIC, microdilution broth method; assay type: cell-based, Staphylococcus aureus; settings: EMRSA15; in µg/mL
# EF2 = experiment: MIC, extended Gram-positive panel; assay type: cell-based, E.faecium
# PA13437 = experiment: MIC, microdilution broth method; assay type: cell-based; settings: PA13437
# EMRSA16 = experiment: MIC, microdilution broth method; assay type: cell-based, Staphylococcus aureus; settings: EMRSA16; in µg/mL
# VSE775 = experiment: MIC, microdilution broth method; assay type: cell-based, Enterococcus faecalis; settings: VSE775; in µg/mL
# SA6 = experiment: MIC, extended Gram-positive panel; assay type: cell-based, S. aureus
# EMRSA 15 strain = experiment: Reserpine (growth) assay for efflux; assay type: cell-based, Staphylococcus aureus; settings: multidrug-resistant EMRSA 15 strain; compound 0.25×MIC, reserpine 10 μg/mL
# SA7 = experiment: MIC, extended Gram-positive panel; assay type: cell-based, S. aureus
# MSSA9144 = experiment: MIC, microdilution broth method; assay type: cell-based, Staphylococcus aureus; settings: MSSA9144; in µg/mL
# SH1 = experiment: MIC, extended Gram-positive panel; assay type: cell-based, S. haemolyticus
# AYE = experiment: MIC, microdilution broth method; assay type: cell-based, Acinetobacter baumannii; settings: AYE, in µg/mL
# VRE12201 = experiment: MIC, microdilution broth method; assay type: cell-based, Enterococcus faecalis; settings: VRE12201; in µg/mL
# SA4 = experiment: MIC, extended Gram-positive panel; assay type: cell-based, S. aureus
# SA1 = experiment: MIC, extended Gram-positive panel; assay type: cell-based, S. aureus
# EF1 = experiment: MIC, extended Gram-positive panel; assay type: cell-based, E.faecalis
# PA01 = experiment: MIC, microdilution broth method; assay type: cell-based, Pseudomonas aeruginosa; settings: PA01, in µg/mL
# VRE12204 = experiment: MIC, microdilution broth method; assay type: cell-based, Enterococcus faecium; settings: VRE12204; in µg/mL
# SA3 = assay type: cell-based, S. aureus
# Ab17978 = experiment: MIC, microdilution broth method; assay type: cell-based; settings: Ab17978, in µg/mL
# SE1 = assay type: cell-based, S. epidermidis
# SA2 = experiment: MIC, extended Gram-positive panel; assay type: cell-based, S. aureus; settings: for MIC: S. aureus SA2
# MSSA 9144 strain = experiment: Reserpine (growth) assay for efflux; assay type: cell-based, Staphylococcus aureus; settings: multidrug-resistant MSSA 9144 strain; compound 0.25×MIC, reserpine 10 μg/mL
# OXA23.1 = experiment: MIC, A. baumannii extended panel; assay type: cell-based; settings: A. baumannii OXA23.1
# UKA7 = experiment: MIC, A. baumannii extended panel; assay type: cell-based
# UKA12 = experiment: MIC, A. baumannii extended panel; assay type: cell-based
# A601 = experiment: MIC, A. baumannii extended panel; assay type: cell-based
# 12156 = experiment: MIC, A. baumannii extended panel; assay type: cell-based; settings: A. baumannii 12156
# UKA13 = experiment: MIC, A. baumannii extended panel; assay type: cell-based
# UKA1 = experiment: MIC, A. baumannii extended panel; assay type: cell-based
# W1 = experiment: MIC, A. baumannii extended panel; assay type: cell-based
# 13302 = experiment: MIC, A. baumannii extended panel; assay type: cell-based; settings: A. baumannii 13302
# UKA16 = experiment: MIC, A. baumannii extended panel; assay type: cell-based
# UKA10 = experiment: MIC, A. baumannii extended panel; assay type: cell-based
# 13423 = experiment: MIC, A. baumannii extended panel; assay type: cell-based; settings: A. baumannii 13423
smiles,measurement,setting,value
CCn1cc(C(=O)O)c(=O)c2cc(F)c(N3CCN(Cc4cccc5ccccc45)CC3)cc21 [ML-77-021],MIC,KP13368; +PMBN,4-8
same,MIC,KP13368; Normal (no PMBN),>32
same,MIC,"SA8; S. aureus SA8, gyrA, 84:S => L, grlA, 80:S => F",2 µg/mL
same,Fold decrease,"SA8; SA8, MIC of parent (CIP or NOR) versus ARB-linked derivative",64 fold
same,MIC,M6; +PMBN,1-4
same,MIC,M6; Normal (no PMBN),32
same,Fold decrease,SA5,≥64 fold
same,MIC,SA5,2 µg/mL
same,MIC,"SA9; S. aureus SA9, gyrA, 84:S => L, grlA, 80:S => F",2 µg/mL
same,Fold decrease,"SA9; SA9, MIC of parent (CIP or NOR) versus ARB-linked derivative",≥64 fold
same,MIC,"SA10; S. aureus SA10, gyrA, 84:S => L, grlA, 80:S => F",2 µg/mL
same,Fold decrease,"SA10; SA10, MIC of parent (CIP or NOR) versus ARB-linked derivative",64 fold
same,MIC,EMRSA15,2
same,MIC,"EF2; E.faecium EF2, in µg/mL",2-4
same,Fold decrease,"EF2; EF2, MIC of parent (CIP or NOR) versus ARB-linked derivative",≥32 fold
same,MIC,PA13437; +PMBN,> 32 µg/mL
same,MIC,PA13437; Normal (no PMBN),> 32 µg/mL
same,MIC,EMRSA16,2
same,MIC,VSE775,2
same,MIC,"SA6; S. aureus SA6, gyrA, 84:S => V, grlA, 80:S => F",2 µg/mL
same,Fold decrease,"SA6; SA6, MIC of parent (CIP or NOR) versus ARB-linked derivative",≥64 fold
same,efflux by the strain (reserpine assay),EMRSA 15 strain,not effluxed
same,MIC,"SA7; S. aureus SA7, gyrA, 84:S => L, grlA, 80:S => F",2 µg/mL
same,Fold decrease,"SA7; SA7, MIC of parent (CIP or NOR) versus ARB-linked derivative",≥64 fold
same,MIC,MSSA9144,1
same,MIC,SH1; S. haemolyticus SH1,4 µg/mL
same,Fold decrease,"SH1; SH1, MIC of parent (CIP or NOR) versus ARB-linked derivative",32 fold
same,MIC,AYE; +PMBN,>32
same,MIC,AYE; Normal (no PMBN),>32
same,MIC,VRE12201,4
same,MIC,"SA4; S. aureus SA4, gyrA, 84:S => L, grlA, 80:S => F",2 µg/mL
same,Fold decrease,"SA4; SA4, MIC of parent (CIP or NOR) versus ARB-linked derivative",32 fold
same,MIC,"SA1; S. aureus SA1, gyrA, 84:S => L, grlA, 80:S => F",4 µg/mL
same,Fold decrease,"SA1; SA1, MIC of parent (CIP or NOR) versus ARB-linked derivative",≥32 fold
same,MIC,EF1; E.faecalis EF1,4 µg/mL
same,Fold decrease,"EF1; EF1, MIC of parent (CIP or NOR) versus ARB-linked derivative",≥32 fold
same,MIC,PA01; +PMBN,0.06-0.25
same,MIC,PA01; Normal (no PMBN),>32
same,MIC,VRE12204,2
same,Fold decrease,SA3,32 fold
same,MIC,SA3,2 µg/mL
same,MIC,Ab17978; +PMBN,0.5
same,MIC,Ab17978; Normal (no PMBN),32
same,Fold decrease,SE1,1-4 fold
same,MIC,SE1; in µg/mL,1
same,MIC,SA2,1 µg/mL
same,Fold decrease,"SA2; SA2, MIC of parent (CIP or NOR) versus ARB-linked derivative",8-64 fold
same,efflux by the strain (reserpine assay),MSSA 9144 strain,not effluxed
Cl.O=C(O)c1cn(C2CC2)c2cc(N3CCN(Cc4ccc(CO)cc4)CC3)c(F)cc2c1=O [ML-77-158],MIC,OXA23.1,64 µg/mL
same,MIC,UKA7,64 µg/mL
same,MIC,UKA12,32 µg/mL
same,MIC,A601,8 µg/mL
same,MIC,12156,0.5 µg/mL
same,MIC,UKA13,32 µg/mL
same,MIC,UKA1,16 µg/mL
same,MIC,W1,32 µg/mL
same,MIC,13302,64 µg/mL
same,MIC,UKA16,32 µg/mL
"O=C(O)c1cn(C2CC2)c2cc(N3CCNCC3)c(F)cc2c1=O [Ciprofloxacin, ciprofloxacin, reference compound]",MIC,UKA7,> 512 µg/mL
same,MIC,UKA12,512 µg/mL
same,MIC,12156,1 µg/mL
same,MIC,VSE775,1
same,MIC,MSSA9144,0.25
same,MIC,UKA10,256 µg/mL
same,MIC,13423,256 µg/mL
same,MIC,UKA13,512 µg/mL
same,MIC,PA01; Normal (no PMBN),0.25
same,MIC,VRE12204,1
same,MIC,Ab17978; Normal (no PMBN),0.25
same,MIC,SA2,1 µg/mL
